Measured values: patent US9708255B2, “(bis)urea and (bis)thiourea compounds as epigenic modulators of lysine-specific demethylase 1 and methods of treating disorders” (priority 2009, dated 2017)
Each block holds one molecule with its values, some of them ahead of it.

Columns and labels:
SFRP2 mRNA = assay: Re-expression of SFRP2 mRNA by qPCR in Calu-6 cells; type: cell-based, human; conditions: Calu-6, 24 hours; for dose dependence of SFRP2 expression increase: 5 vs 10 μM
Excerpt: (§1) The ability of compounds 25-27 to induce the re-expression of aberrantly silenced tumor suppressor genes in vitro was next measured using the Calu-6 human lung carcinoma cell line. The tumor suppressor genes SFRP2 and GATA4 were chosen because they are known to be under expressed in human lung cancer, and because they are thought to play a role in tumorigenesis when silenced. Thus, the genes coding for these proteins are well-documented LSD1 targets. […]. […]. The increase in GATA4 mRNA caused by […] 27 is reproducible, but is not statistically significant (P>0.05).
(§2) RNA was extracted using TRIzol reagents (Invitrogen, Carlsbad, Calif.). First-strand cDNA was synthesized using SuperScript III reverse transcriptase with an oligo(dT) primer (Invitrogen). qPCR was performed using the following primers: SFRP2 sense, 5′AAGCCTGCAAAAATAAAAATGATG; SFRP2 antisense, 5′TGTAAATGGTCTTGCTCTTGGTCT (annealing at 57.4° C.); GATA4 sense, 5′GGCCGCCCGACACCCCAATCT; GATA4 antisense, 5′ ATAGTGACCCGTCCCATCTCG (annealing at 64° C.). qPCR was performed in a MyiQ single color real-time PCR machine (Bio-Rad, Hercules, Calif.) with GAPDH as an internal control.

global H3K4me2 [1] = assay: Global H3K4me2 level by quantitative Western blot in Calu-6 cells; type: cell-based, human; conditions: Calu-6, 10 μM
Method: (§3) FIG. 2. Effect of compounds 25-27 on the expression of global H3K4me1 and H3K4me2. […] Proliferating cell nuclear antigen (PCNA) was used as a loading control. Shown are Western blot images from a single representative experiment performed in triplicate. Relative protein expression levels were determined by quantitative Western analysis using the Odyssey infrared detection system shown as bar graphs. The results represent the mean of three treatments ±SD. The protein expression level for control samples was set to a value of 1.
(§4) The ability of the target (bis)ureas and (bis)thioureas to inhibit LSD1 was determined in an assay procedure utilizing the recombinant human enzyme. Expression and purification of LSD1 were conducted as previously reported. Enzymatic activity of LSD1 in the presence of target compounds was determined using luminol-dependent chemiluminescence to measure the production of H2O2, as previously described. The results of these experiments are summarized in Table 1, and graphically in FIG. 1. […] Subsequent experiments were conducted in the Calu-6 human anaplastic non-small cell lung carcinoma line because it has a highly reproducible response to epigenetic modulation, and because it is known that various tumor suppressor genes are silenced in this line. In order for synthetic analogues to be effective at the cellular level, any observed decreases in cellular LSD1 activity should be accompanied by an increase in global H3K4me1 and H3K4me2 content. […] The reduction in H3K4me2 and corresponding increase in H3K4me1 by 26 at both 24 and 48 hours cannot be readily explained, and is the subject of continuing investigation.
(§5) Cytoplasmic and nuclear fractions were prepared for Western blot analysis using the NE-PER™ Nuclear and Cytoplasmic Extraction Kit (Pierce, Rockford, Ill.). Primary antibodies against H3K4me2 were from Millipore. The pCNA monoclonal antibody was purchased from Oncogene Research Products (Cambridge, Mass.). Dye-conjugated secondary antibodies were used for quantification of Western blot results using the Odyssey Infrared Detection system and software (LI-COR Biosciences, Lincoln, Nebr.).

global H3K4me1 = assay: Global H3K4me1 level by quantitative Western blot in Calu-6 cells; type: cell-based, human; conditions: Calu-6, 10 μM
Method: as §3, §4, §5

GATA4 mRNA = assay: Re-expression of GATA4 mRNA by qPCR in Calu-6 cells; type: cell-based, human; conditions: Calu-6, 24 hours; for effect on GATA4 levels: 5 and 10 μM
Excerpt: as §1, §2

recombinant human LSD1 = recombinant human LSD1 (Homo sapiens, UniProt O60341); assay: LSD1 demethylase assay, luminol-dependent chemiluminescence (H2O2 production); conditions: read-out: % LSD1 activity remaining, treatment with each analogue at 10 μM
Method: Percent of LSD1 activity remaining was determined following 24-hour treatment with 10 mM of each test compound as determined by the luminol-dependent chemiluminescence method.
The ability of the target (bis)ureas and (bis)thioureas to inhibit LSD1 was determined in an assay procedure utilizing the recombinant human enzyme. Expression and purification of LSD1 were conducted as previously reported. Enzymatic activity of LSD1 in the presence of target compounds was determined using luminol-dependent chemiluminescence to measure the production of H2O2, as previously described. […] Full-length human LSD1 cDNA was subcloned into the pET15b bacterial expression vector (Novagen, Madison, Wis.) in frame with an N-terminal 6×HIS-tag and transformed into the BL21(DE3) strain of Escherichia coli. Following selection, expression and purification of recombinant LSD1 protein were performed as previously described. Briefly, expression of LSD1-HIS protein was induced by 1 mM IPTG for 6 h at 25° C. The HIS-tagged protein was purified using Ni-NTA affinity purification resin and column as recommended by the manufacturer (Qiagen, Valencia, Calif.). Bound protein was eluted by imidazole and the eluate was dialyzed in PBS at 4° C. […] The integral values were calibrated against standards containing known concentrations of H2O2, and the activities expressed as pmols H2O2/mg protein/min. […]

global H3K4me2 [2] = conditions: P19 cell line; cited from earlier work
[3] = target: recombinant LSD1/CoRest complex (Homo sapiens, UniProt O60341); conditions: cited from earlier work
global H3K4me2 [4] = assay: Global H3K4me2 in HCT116 human colon tumor cells; type: cell-based; conditions: HCT116 human colon tumor cells (data not shown)

SMILES: S=C(NCCCNCCCNCCCNC(=S)NCC(c1ccccc1)c1ccccc1)NCC(c1ccccc1)c1ccccc1 [Compound 27, 1,11-bis-{3-[1-(2,2-diphenylethyl)thioureado]}-4,8-diazaundecane]
increase in SFRP2 expression (SFRP2 mRNA; 10 mM (so in the source)): 4.8 fold
dose dependence of SFRP2 expression increase (SFRP2 mRNA): dose dependent
global H3K4me2 level (global H3K4me2 [1]; 24 hours): significant increases
global H3K4me1 level (global H3K4me1; 24 hours): significant increases
effect on GATA4 mRNA (GATA4 mRNA; 5 μM): no significant effect
increase in GATA4 mRNA (GATA4 mRNA; 10 μM (b97 prints 10 mM)): 1.3 fold

remaining activity at 10 µM (recombinant human LSD1): 92.2%
SMILES: S=C(NCCCNCCCNCCCNC(=S)NCCC(c1ccccc1)c1ccccc1)NCCC(c1ccccc1)c1ccccc1 [Compound 20, 1,11-bis-{3-[1-(3,3-diphenylpropyl)thioureado]}-4,8-diazaundecane]

SMILES: NNCCc1ccccc1 [phenelzine]
global levels of H3K4me2 (global H3K4me2 [2]): increase
nucleosomal demethylation [3]: inactivate

SMILES: S=C(NCCCNCCCCCCCNCCCNC(=S)NCC(c1ccccc1)c1ccccc1)NCC(c1ccccc1)c1ccccc1 [Compound 25, 1,15-bis-{3-[1-(2,2-diphenylethyl)thioureado]}-4,12-diazapentadecane]
dose dependence of SFRP2 expression increase (SFRP2 mRNA): dose dependent
global H3K4me2 level (global H3K4me2 [1]; 24 hours): significant increases
global H3K4me2 level (global H3K4me2 [1]; 48 hours): most dramatic increases
increase in global H3K4me2 (global H3K4me2 [4]): 17.4 fold
global H3K4me1 level (global H3K4me1; 24 hours): significant increases
global H3K4me1 level (global H3K4me1; 48 hours): most dramatic increases
effect on GATA4 levels (GATA4 mRNA): did not produce significant increases

SMILES: S=C(NCCCNCCCCNCCCNC(=S)NCC(c1ccccc1)c1ccccc1)NCC(c1ccccc1)c1ccccc1 [Compound 26, 1,12-bis-{3-[1-(2,2-diphenylethyl)thioureado]}-4,9-diazadodecane]
dose dependence of SFRP2 expression increase (SFRP2 mRNA): same level
global H3K4me2 level (global H3K4me2 [1]; 24 hours): decreased
global H3K4me2 level (global H3K4me2 [1]; 48 hours): reduction
global H3K4me1 level (global H3K4me1; 24 hours): significant increase
global H3K4me1 level (global H3K4me1; 48 hours): increase
effect on GATA4 levels (GATA4 mRNA): did not produce significant increases

remaining activity at 10 µM (recombinant human LSD1): 26.1%
SMILES: O=C(NCCCNCCCCNCCCNC(=O)NC(=O)N(c1ccccc1)c1ccccc1)NC(=O)N(c1ccccc1)c1ccccc1 [Compound 31, 1,12-bis-{5-[1-(N,N-diphenyl)carbamyl]ureado}-4,9-diazadodecane]

SMILES: N[C@@H]1C[C@H]1c1ccccc1 (racemic) [tranylcypromine]
global levels of H3K4me2 (global H3K4me2 [2]): increase
